The text below walks through data of US7786137B2, “Bicyclic derivatives as modulators of ion channels” (Vertex Pharmaceuticals Incorporated, priority 2005, dated 2010).

In the experiment the target is NaV1.3 (Homo sapiens, UniProt Q9NY46). As to the kind of experiment: VIPR optical membrane potential assay, NaV1.3 inhibition. Type of experiment: cell-based. Also noted: expressed in transfected cells; host or cells: HEK293. Particulars: activity against NaV 1.3 channel. As to the method: Antagonist properties of test compounds were assessed as follows. Cells expressing the NaV of interest were placed into microtiter plates. After an incubation period, the cells were stained with fluorescent dyes sensitive to the transmembrane potential. The test compounds were added to the microtiter plate. The cells were stimulated with either a chemical or electrical means to evoke a NaV dependent membrane potential change from unblocked channels, which was detected and measured with trans-membrane potential-sensitive dyes. Antagonists were detected as a decreased membrane potential response to the stimulus.
NaV1.3, sequence (Q9NY46 whole entry): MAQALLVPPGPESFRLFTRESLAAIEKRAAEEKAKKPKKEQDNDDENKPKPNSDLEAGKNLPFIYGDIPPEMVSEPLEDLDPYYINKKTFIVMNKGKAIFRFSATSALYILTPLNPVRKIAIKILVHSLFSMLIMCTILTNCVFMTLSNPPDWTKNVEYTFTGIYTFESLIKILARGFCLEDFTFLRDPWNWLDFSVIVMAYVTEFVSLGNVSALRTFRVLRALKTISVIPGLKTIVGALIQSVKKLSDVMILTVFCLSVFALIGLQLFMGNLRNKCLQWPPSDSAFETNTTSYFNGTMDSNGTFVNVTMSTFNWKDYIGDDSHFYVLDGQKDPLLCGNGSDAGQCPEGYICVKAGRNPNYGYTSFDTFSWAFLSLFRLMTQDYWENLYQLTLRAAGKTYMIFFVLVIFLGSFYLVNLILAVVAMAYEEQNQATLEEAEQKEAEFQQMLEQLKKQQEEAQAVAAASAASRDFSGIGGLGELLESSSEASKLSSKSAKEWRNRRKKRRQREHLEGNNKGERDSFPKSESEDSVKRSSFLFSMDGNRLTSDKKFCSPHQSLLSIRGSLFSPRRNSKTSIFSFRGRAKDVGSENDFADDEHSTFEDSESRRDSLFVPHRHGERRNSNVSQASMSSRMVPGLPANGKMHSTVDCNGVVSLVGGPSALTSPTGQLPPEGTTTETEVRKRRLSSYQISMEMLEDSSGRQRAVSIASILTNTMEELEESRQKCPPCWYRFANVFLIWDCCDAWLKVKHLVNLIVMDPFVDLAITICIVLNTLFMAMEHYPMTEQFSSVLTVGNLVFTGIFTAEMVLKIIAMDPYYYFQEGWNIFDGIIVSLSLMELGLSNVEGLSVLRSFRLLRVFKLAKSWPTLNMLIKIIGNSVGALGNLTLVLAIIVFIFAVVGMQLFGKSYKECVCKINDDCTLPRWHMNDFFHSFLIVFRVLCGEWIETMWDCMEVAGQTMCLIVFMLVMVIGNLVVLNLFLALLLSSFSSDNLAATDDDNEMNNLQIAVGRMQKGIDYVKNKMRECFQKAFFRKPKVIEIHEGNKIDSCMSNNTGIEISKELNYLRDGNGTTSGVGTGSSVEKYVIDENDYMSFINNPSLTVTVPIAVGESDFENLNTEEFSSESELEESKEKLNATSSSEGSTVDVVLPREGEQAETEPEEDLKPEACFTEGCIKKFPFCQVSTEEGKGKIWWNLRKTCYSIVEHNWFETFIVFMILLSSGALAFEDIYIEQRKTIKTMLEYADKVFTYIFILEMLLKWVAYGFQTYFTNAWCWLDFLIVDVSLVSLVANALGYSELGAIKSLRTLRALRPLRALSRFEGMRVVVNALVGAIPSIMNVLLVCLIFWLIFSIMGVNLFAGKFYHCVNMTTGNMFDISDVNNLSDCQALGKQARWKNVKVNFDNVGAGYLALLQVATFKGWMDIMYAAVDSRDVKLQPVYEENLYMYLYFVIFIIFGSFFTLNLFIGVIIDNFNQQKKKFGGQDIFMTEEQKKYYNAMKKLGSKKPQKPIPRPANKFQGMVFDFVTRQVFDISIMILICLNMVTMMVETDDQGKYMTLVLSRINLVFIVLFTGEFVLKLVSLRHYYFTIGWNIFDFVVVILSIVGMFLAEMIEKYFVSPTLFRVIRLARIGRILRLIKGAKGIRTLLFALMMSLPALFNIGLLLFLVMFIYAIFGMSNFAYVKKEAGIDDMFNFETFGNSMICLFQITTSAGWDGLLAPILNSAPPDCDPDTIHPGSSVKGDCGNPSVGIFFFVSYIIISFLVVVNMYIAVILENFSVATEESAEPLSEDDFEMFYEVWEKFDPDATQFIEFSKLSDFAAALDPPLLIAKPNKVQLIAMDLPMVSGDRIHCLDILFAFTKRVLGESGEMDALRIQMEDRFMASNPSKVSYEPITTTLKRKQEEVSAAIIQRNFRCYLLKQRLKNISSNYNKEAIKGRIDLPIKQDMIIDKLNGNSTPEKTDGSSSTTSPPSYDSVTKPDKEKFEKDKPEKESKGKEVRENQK
The following is an example of how NaV1.3 inhibition activity is measured using the optical membrane potential method#2. Other subtypes are performed in an analogous mode in a cell line expressing the NaV of interest.
HEK293 cells stably expressing NaV1.3 are plated into 96-well microtiter plates. After an appropriate incubation period, the cells are stained with the voltage sensitive dyes CC2-DMPE/DiSBAC2(3) as follows.
2× CC2-DMPE=20 μM CC2-DMPE: 10 mM CC2-DMPE is vortexed with an equivalent volume of 10% pluronic, followed by vortexing in required amount of HBSS containing 10 mM HEPES. Each cell plate will require 5 mL of 2× CC2-DMPE. 50 μL of 2× CC2-DMPE is to wells containing washed cells, resulting in a 10 μM final staining concentration. The cells are stained for 30 minutes in the dark at RT.
2× DISBAC2(3) with ABSC1=6 μM DISBAC2(3) and 1 mM ABSC1: The required amount of 10 mM DISBAC2(3) is added to a 50 ml conical tube and mixed with 1 μL 10% pluronic for each mL of solution to be made and vortexed together. Then HBSS/HEPES is added to make up 2× solution. Finally, the ABSC1 is added.
The 2× DiSBAC2(3) solution can be used to solvate compound plates. Note that compound plates are made at 2× drug concentration. Wash stained plate again, leaving residual volume of 50 μL. Add 50 μL/well of the 2× DiSBAC2(3) w/ABSC1. Stain for 30 minutes in the dark at RT.
The instrument comprises a microtiter plate handler, an optical system for exciting the coumarin dye while simultaneously recording the coumarin and oxonol emissions, a waveform generator, a current- or voltage-controlled amplifier, and a device for inserting electrodes in well. Under integrated computer control, this instrument passes user-programmed electrical stimulus protocols to cells within the wells of the microfilter plate.
Insert or use electrodes into each well to be assayed.
Use the current-controlled amplifier to deliver stimulation wave pulses for 3 s. Two seconds of pre-stimulus recording are performed to obtain the un-stimulated intensities. Five seconds of post-stimulation recording are performed to examine the relaxation to the resting state.
Data are analyzed and reported as normalized ratios of background-subtracted emission intensities measured in the 460 nm and 580 nm channels. Background intensities are then subtracted from each assay channel. Background intensities are obtained by measuring the emission intensities during the same time periods from identically treated assay wells in which there are no cells. The response as a function of time is then reported as the ratios obtained using the following formula: […]
The data is further reduced by calculating the initial (Ri) and final (Rf) ratios. These are the average ratio values during part or all of the pre-stimulation period, and during sample points during the stimulation period. The response to the stimulus ? =Rf/Ri is then calculated.
Control responses are obtained by performing assays in the presence of a compound with the desired properties (positive control), such as tetracaine, and in the absence of pharmacological agents (negative control). Responses to the negative (N) and positive (P) controls are calculated as above. The compound antagonist activity A is defined as:
[formula] where R is the ratio response of the test compound.
The IC50 is the midpoint of a concentration-inhibition curve. Low values mean higher potency, high ones lower potency. In the case of `Cc1ccc(OCC(=O)N2CCc3cc(S(=O)(=O)Nc4nccs4)ccc32)c(C)c1` [Compound 60], the concentration for half-maximal inhibition (IC50) was < 2000 nM. Regarding `O=C(CNc1cc(F)ccc1F)N1CCc2cc(S(=O)(=O)Nc3nccs3)ccc21` [Compound 61], the IC50 is < 2000 nM. In the case of `CC(Oc1cccc(Cl)c1)C(=O)N1Cc2ccc(S(=O)(=O)Nc3nccs3)cc2C1` (centres unmarked) [Compound 62], the IC50 was < 2000 nM. Next, `O=C(Cc1ccc(C(F)(F)F)cc1)N1CCc2cc(S(=O)(=O)Nc3nccs3)ccc21` [Compound 63]: < 2000 nM.

`Cc1ccc2c(c1)CCCN2CC(=O)N1CCc2cc(S(=O)(=O)Nc3nccs3)ccc21` [Compound 64] registered an IC50 of 2000 to 5000 nM. Next, `O=S(=O)(Nc1nccs1)c1ccc2c(c1)CCN2CCNc1nc2ccccc2[nH]1` [Compound 66]: > 5000 nM. Next, `O=C(COc1cccc(Cl)c1Cl)N1CCc2cc(S(=O)(=O)Nc3nccs3)ccc21` [Compound 67]: < 2000 nM; `O=C(CNc1ccc(C(F)(F)F)cc1)N1CCc2cc(S(=O)(=O)Nc3nccs3)ccc21` [Compound 68]: 2000 to 5000 nM; `O=C(Cn1ccc2cccc(Cl)c21)N1CCc2ccc(S(=O)(=O)Nc3nccs3)cc2C1` [Compound 69]: > 5000 nM. Next, `O=C(c1cc(F)ccc1F)N1CCCc2cc(S(=O)(=O)Nc3nccs3)ccc21` [Compound 70]: > 5000 nM; `O=C(COc1ccnc2c(C(F)(F)F)cccc12)N1CCc2cc(S(=O)(=O)Nc3ncns3)ccc21` [Compound 71]: < 2000 nM; `O=C(COc1ccccc1)N1CCCc2cc(S(=O)(=O)Nc3ncns3)ccc21` [Compound 72]: > 5000 nM. `O=C(c1ccc(F)cc1F)N1CCc2ccc(S(=O)(=O)Nc3nccs3)cc2C1` [Compound 73]: the IC50 is > 5000 nM.

As to `O=C(c1cc(F)ccc1F)N1CCc2ccc(S(=O)(=O)Nc3nccs3)cc2C1` [Compound 74], the IC50 was > 5000 nM.

As to `CC1CCCN(CC(=O)N2CCc3cc(S(=O)(=O)Nc4nccs4)ccc32)C1` (centres unmarked) [Compound 75], the IC50 was > 5000 nM.

With `O=C(c1c(F)cc(F)cc1F)N1CCCc2cc(S(=O)(=O)Nc3nccs3)ccc21` [Compound 76], the IC50 is > 5000 nM. With `Cc1ccc(OCC(=O)N2CCc3cc(S(=O)(=O)Nc4nccs4)ccc32)cc1C` [Compound 79], the IC50 is < 2000 nM. Next, `COc1ccc(OC(=O)N2CCc3cc(S(=O)(=O)Nc4nccs4)ccc32)cc1` [Compound 80]: > 5000 nM; `Cc1ccc(C(=O)N2CCc3cc(S(=O)(=O)Nc4nccs4)ccc32)cc1Cl` [Compound 82]: < 2000 nM. The compound `COc1ccc(F)cc1C(=O)N1CCc2cc(S(=O)(=O)Nc3nccs3)ccc21` [Compound 83] yielded an IC50 of 2000 to 5000 nM. For the compound `O=C(COc1ccc(OC(F)(F)F)cc1)N1Cc2ccc(S(=O)(=O)Nc3nccs3)cc2C1` [Compound 84], the IC50 is < 2000 nM. As to `CC1CN(CC(=O)N2CCc3cc(S(=O)(=O)Nc4nccs4)ccc32)CC(C)O1` (centres unmarked) [Compound 85], the IC50 was > 5000 nM. Next, `O=C(c1cccc(Cl)c1)n1ccc2cc(S(=O)(=O)Nc3nccs3)ccc21` [Compound 86]: < 2000 nM; `C[C@H](C(=O)N1CCc2cc(S(=O)(=O)Nc3nccs3)ccc21)n1ccc2ccccc21` [Compound 87]: < 2000 nM; `O=C(c1ccc(Cl)c(Cl)c1)N1CCc2cc(S(=O)(=O)Nc3ncns3)ccc21` [Compound 89]: < 2000 nM. Next, `O=C(c1ccc(Cl)c(Cl)c1)N1CCc2cc(S(=O)(=O)Nc3nccs3)ccc21` [Compound 90]: < 2000 nM; `CC(Oc1cccc(Cl)c1)C(=O)N1CCc2cc(S(=O)(=O)Nc3nccs3)ccc21` (centres unmarked) [Compound 91]: < 2000 nM; `C[C@H](C(=O)N1CCc2cc(S(=O)(=O)Nc3ncns3)ccc21)n1ccc2c(F)cccc21` [Compound 93]: < 2000 nM.

Take `C[C@H](C(=O)N1Cc2ccc(S(=O)(=O)Nc3ncns3)cc2C1)n1ccc2c(F)cccc21` [Compound 94]: the IC50 was < 2000 nM.

Consider `O=C(c1ccc(F)cc1F)N1CCCc2cc(S(=O)(=O)Nc3nccs3)ccc21` [Compound 95], for which the IC50 was > 5000 nM. `O=C(c1ccccc1F)N1CCCc2cc(S(=O)(=O)Nc3nccs3)ccc21` [Compound 96]: the concentration for half-maximal inhibition (IC50) is > 5000 nM. Next, `Cc1ccc(OCC(=O)N2CCc3cc(S(=O)(=O)Nc4ncns4)ccc32)cc1C` [Compound 97]: < 2000 nM; `Cc1nnc(NS(=O)(=O)c2ccc3c(c2)CN(C(=O)[C@@H](C)N2CCCc4cc(Cl)ccc42)C3)s1` [Compound 98]: 2000 to 5000 nM; `Cc1ccccc1CNCCN1CCc2cc(S(=O)(=O)Nc3nccs3)ccc21` [Compound 99]: > 5000 nM. With `COc1ccc(NCCN2CCc3cc(S(=O)(=O)Nc4nccs4)ccc32)cc1` [Compound 100], the IC50 was > 5000 nM. Consider `O=C(CN1CCCc2ccccc21)N1CCCc2cc(S(=O)(=O)Nc3nccs3)ccc21` [Compound 101], for which the IC50 is > 5000 nM. Next, `O=C(ON1Cc2ccc(S(=O)(=O)Nc3nccs3)cc2C1)c1ccc(Cl)cc1` [Compound 102]: < 2000 nM; `O=C(c1ccccc1Cl)n1ccc2cc(S(=O)(=O)Nc3nccs3)ccc21` [Compound 103]: 2000 to 5000 nM; `O=C(CNC1CCCCC1)N1CCc2cc(S(=O)(=O)Nc3nccs3)ccc21` [Compound 104]: > 5000 nM. Compound `CCc1nnc(NS(=O)(=O)c2ccc3c(c2)CN(C(=O)[C@@H](C)n2ccc4c(F)cccc42)C3)s1` [Compound 105] returned an IC50 of 2000 to 5000 nM. Next, `O=C(Oc1cccc(C(F)(F)F)c1)N1CCc2cc(S(=O)(=O)Nc3nccs3)ccc21` [Compound 106]: 2000 to 5000 nM; `Cc1ccccc1CC(=O)N1CCc2cc(S(=O)(=O)Nc3nccs3)ccc21` [Compound 107]: < 2000 nM; `COc1cc(NCC(=O)N2CCc3cc(S(=O)(=O)Nc4nccs4)ccc32)cc(OC)c1` [Compound 108]: > 5000 nM. As to `O=C(c1cc(Cl)ccc1Cl)N1CCc2cc(S(=O)(=O)Nc3nccs3)ccc21` [Compound 109], the IC50 is < 2000 nM.

`COc1ccc(F)cc1C(=O)n1ccc2cc(S(=O)(=O)Nc3nccs3)ccc21` [Compound 110] showed an IC50 of 2000 to 5000 nM. Consider `O=C(COc1cccc(Cl)c1)N1CCCc2cc(S(=O)(=O)Nc3nccs3)ccc21` [Compound 111], for which the IC50 was < 2000 nM. In the case of `O=C(COc1ccccc1)N1CCc2cc(S(=O)(=O)Nc3nccs3)ccc21` [Compound 112], the IC50 is < 2000 nM. Next, `O=C(COc1ccccc1)N1CCCc2cc(S(=O)(=O)Nc3nccs3)ccc21` [Compound 113]: 2000 to 5000 nM. Next, `O=C(c1ccc(F)cc1)N1CCCc2cc(S(=O)(=O)Nc3nccs3)ccc21` [Compound 114]: > 5000 nM; `O=C(COc1ccc(F)cc1)N1Cc2ccc(S(=O)(=O)Nc3nccs3)cc2C1` [Compound 115]: < 2000 nM. Next, `O=C(c1ccc(Cl)cc1Cl)N1CCc2cc(S(=O)(=O)Nc3nccs3)ccc21` [Compound 116]: < 2000 nM. With `O=C(Oc1ccc(Cl)cc1)N1CCc2cc(S(=O)(=O)Nc3nccs3)ccc21` [Compound 117], the IC50 is > 5000 nM.

`O=C(c1ccc(F)cc1F)N1CCc2cc(S(=O)(=O)Nc3ncns3)ccc21` [Compound 118]: the IC50 is > 5000 nM. Next, `O=C(c1ccc(F)cc1)N1CCc2ccc(S(=O)(=O)Nc3nccs3)cc2C1` [Compound 119]: > 5000 nM; `O=C(CN1CCCc2cc(Cl)ccc21)N1Cc2ccc(S(=O)(=O)Nc3ncns3)cc2C1` [Compound 120]: < 2000 nM.

Consider `O=C(CCn1ccc2cc(Cl)ccc21)N1CCc2ccc(S(=O)(=O)Nc3nccs3)cc2C1` [Compound 121], for which the IC50 was < 2000 nM.
